Reference: ChEMBL document CHEMBL1138896, “2,3,7-Trisubstituted pyrazolo[1,5-d][1,2,4]triazines: functionally selective GABAA alpha3-subtype agonists” (Bioorg Med Chem Lett, 2006)

Legend:
[1] = target: GABA-A receptor; alpha-3/beta-3/gamma-2 (Homo sapiens) (UniProt P18507+P28472+P34903); assay: Efficacy against human recombinant GABA-Aalpha3 plus beta-3-gamma-2 receptor expressed in L(tk-) cells assessed as modulation of chloride ion by whole cell patch clamp method relative to chlorodiazepoxide; type: functional, cell-based
[2] = target: GABA-A receptor; alpha-1/beta-3/gamma-2 (Homo sapiens) (UniProt P14867+P18507+P28472); assay: Efficacy against human recombinant GABA-Aalpha1 plus beta-3-gamma-2 receptor expressed in L(tk-) cells assessed as modulation of chloride ion by whole cell patch clamp method relative to chlorodiazepoxide; type: functional, cell-based
[3] = target: T1, GABA-A receptor; alpha-3/beta-3/gamma-2 (Homo sapiens, UniProt P18507+P28472+P34903); assay: Inhibition of [3H]Ro15-1788 binding to human recombinant GABA-Aalpha3 plus beta-3-gamma-2 receptor expressed in L(tk-) cells; type: cell-based
T1 sequence (P18507 whole entry): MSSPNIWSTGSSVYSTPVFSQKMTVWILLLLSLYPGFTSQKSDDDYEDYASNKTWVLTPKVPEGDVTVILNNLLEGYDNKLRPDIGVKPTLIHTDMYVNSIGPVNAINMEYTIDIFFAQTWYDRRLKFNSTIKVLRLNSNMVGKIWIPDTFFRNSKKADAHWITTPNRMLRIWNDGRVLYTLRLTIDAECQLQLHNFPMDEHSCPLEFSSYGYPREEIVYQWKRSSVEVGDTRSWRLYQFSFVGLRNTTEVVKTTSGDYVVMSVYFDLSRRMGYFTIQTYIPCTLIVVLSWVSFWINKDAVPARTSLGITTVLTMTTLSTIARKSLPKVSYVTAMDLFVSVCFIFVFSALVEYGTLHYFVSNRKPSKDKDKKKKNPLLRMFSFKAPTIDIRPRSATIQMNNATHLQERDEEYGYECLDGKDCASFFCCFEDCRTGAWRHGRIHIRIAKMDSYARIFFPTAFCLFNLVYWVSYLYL
T1 sequence (P28472 whole entry): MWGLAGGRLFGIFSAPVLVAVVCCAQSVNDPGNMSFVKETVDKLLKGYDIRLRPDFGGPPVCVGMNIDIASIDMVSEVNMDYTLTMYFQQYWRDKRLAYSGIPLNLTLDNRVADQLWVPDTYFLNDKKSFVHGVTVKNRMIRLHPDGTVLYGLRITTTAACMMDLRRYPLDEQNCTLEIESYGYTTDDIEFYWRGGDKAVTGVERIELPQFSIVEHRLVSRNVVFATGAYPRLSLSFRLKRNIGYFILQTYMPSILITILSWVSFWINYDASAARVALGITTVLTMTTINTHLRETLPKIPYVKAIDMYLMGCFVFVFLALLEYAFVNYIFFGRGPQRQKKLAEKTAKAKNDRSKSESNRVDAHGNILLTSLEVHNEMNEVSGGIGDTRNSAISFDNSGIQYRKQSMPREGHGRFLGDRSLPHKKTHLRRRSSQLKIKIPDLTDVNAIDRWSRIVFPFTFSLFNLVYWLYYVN
T1 sequence (P34903 whole entry): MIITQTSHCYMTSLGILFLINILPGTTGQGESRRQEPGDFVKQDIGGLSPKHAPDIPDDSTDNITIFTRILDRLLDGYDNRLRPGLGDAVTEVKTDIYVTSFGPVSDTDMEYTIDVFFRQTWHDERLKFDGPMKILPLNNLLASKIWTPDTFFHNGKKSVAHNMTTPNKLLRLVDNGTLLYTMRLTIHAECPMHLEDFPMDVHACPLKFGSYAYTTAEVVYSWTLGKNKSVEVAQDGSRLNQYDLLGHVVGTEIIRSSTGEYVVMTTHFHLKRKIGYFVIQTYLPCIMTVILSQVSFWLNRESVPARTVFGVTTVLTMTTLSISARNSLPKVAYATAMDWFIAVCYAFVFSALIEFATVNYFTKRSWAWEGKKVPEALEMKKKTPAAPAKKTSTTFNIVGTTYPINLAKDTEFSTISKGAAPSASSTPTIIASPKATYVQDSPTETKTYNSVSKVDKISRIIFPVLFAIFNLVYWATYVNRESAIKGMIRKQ

Rattus norvegicus = assay: Receptor occupancy in rat, po; type: functional
[4] = Oral bioavailability in rat; type: ADME, organism-based; conditions: in vivo
[5] = target: T2, GABA-A receptor; alpha-1/beta-3/gamma-2 (Homo sapiens, UniProt P14867+P18507+P28472); assay: Inhibition of [3H]Ro15-1788 binding to human recombinant GABA-Aalpha1 plus beta-3-gamma-2 receptor expressed in L(tk-) cells; type: cell-based
T2 sequence (P14867 whole entry): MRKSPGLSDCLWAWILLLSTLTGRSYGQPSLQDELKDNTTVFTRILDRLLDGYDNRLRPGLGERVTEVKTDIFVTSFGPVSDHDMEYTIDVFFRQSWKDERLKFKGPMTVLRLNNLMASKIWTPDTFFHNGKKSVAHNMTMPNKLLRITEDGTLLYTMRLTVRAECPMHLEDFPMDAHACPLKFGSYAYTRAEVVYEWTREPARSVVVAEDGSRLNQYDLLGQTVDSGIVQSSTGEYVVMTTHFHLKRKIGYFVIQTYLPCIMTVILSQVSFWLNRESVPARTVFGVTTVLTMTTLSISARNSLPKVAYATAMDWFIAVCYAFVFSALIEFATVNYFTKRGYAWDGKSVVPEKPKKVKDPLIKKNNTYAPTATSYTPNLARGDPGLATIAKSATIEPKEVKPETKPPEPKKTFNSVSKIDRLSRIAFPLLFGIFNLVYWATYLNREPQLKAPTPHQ
T2 sequence (P18507 whole entry): T1 sequence (P18507 whole entry)
T2 sequence (P28472 whole entry): T1 sequence (P28472 whole entry)

| Efficacy [1] | Efficacy [2] | Ki [3] [nM] | bioavailability [4] [%] | Ki [5] [nM] | Compound | Activity (Rattus norvegicus) [mg/kg] |
| --- | --- | --- | --- | --- | --- | --- |
| 0.46 | 0.23 | 0.28 | – | – | Cn1ncnc1COc1nn2c(-c3ccccc3F)nncc2c1-c1cccc(F)c1 | – |
| 0.21 | -0.02 | 0.1 | 32 | – | Cn1ncnc1COc1nn2c(-c3ccccc3F)nncc2c1-c1ccsc1 | 0.54 |
| 0.59 | 0.37 | 2.6 | – | – | Cn1ncnc1COc1nn2c(-c3c(F)cc(F)cc3F)nncc2c1-c1ccccc1F | – |
| 0.45 | 0.35 | 1.1 | – | – | Cn1ncnc1COc1nn2c(-c3ccccc3F)nncc2c1-c1cccc(Cl)c1 | – |
| 0.4 | 0.27 | 1.5 | – | – | Cn1ncnc1COc1nn2c(-c3ccccc3F)nncc2c1-c1cccc(F)c1F | – |
| – | – | 23 | – | – | Cc1ccccc1-c1c(OCc2ncnn2C)nn2c(-c3ccccc3F)nncc12 | – |
| 0.45 | 0.23 | 0.55 | – | – | Cn1ncnc1COc1nn2c(-c3ccccc3F)nncc2c1-c1c(F)cccc1F | – |
| 0.46 | 0.29 | 0.2 | – | – | Cn1ncnc1COc1nn2c(-c3ccccc3F)nncc2c1-c1cc(F)ccc1F | – |
| 0.32 | 0.32 | 8.7 | – | – | Cn1ncnc1COc1nn2c(-c3ccccc3F)nncc2c1-c1ccccc1Cl | – |
| 0.55 | 0.45 | 2.7 | – | – | Cn1ncnc1COc1nn2c(-c3c(F)ccc(F)c3F)nncc2c1-c1ccccc1F | – |
| 0.55 | 0.29 | 0.52 | – | – | Cn1ncnc1COc1nn2c(-c3c(F)cccc3F)nncc2c1-c1ccccc1F | – |
| 0.6 | 0.36 | 0.94 | – | – | Cn1ncnc1COc1nn2c(-c3ccc(F)cc3)nncc2c1-c1ccccc1F | – |
| 0.78 | 0.42 | 2 | – | – | Cn1ncnc1COc1nn2c(-c3ccc(F)cc3F)nncc2c1-c1ccccc1F | – |
| 0.31 | 0.09 | 6.3 | – | – | Cn1ncnc1COc1nn2c(-c3ccccc3F)nncc2c1-c1ccc(F)cc1 | – |
| 0.57 | 0.38 | 1.2 | – | – | Cn1ncnc1COc1nn2c(-c3cccc(F)c3)nncc2c1-c1ccccc1F | – |
| – | – | > 33 | – | – | Cn1ncnc1COc1nn2c(-c3ccccc3F)nncc2c1-c1cc(F)cc(F)c1 | – |
| 0.12 | 0.01 | 0.1 | – | – | Cn1ncnc1COc1nn2c(-c3ccccc3F)nncc2c1-c1cccs1 | – |
| 0.4 | 0.22 | 0.45 | – | – | Cn1ncnc1COc1nn2c(-c3ccccc3F)nncc2c1-c1ccccc1F | – |
| 0.52 | 0.52 | 1.3 | – | – | Cn1ncnc1COc1nn2c(-c3cc(F)ccc3F)nncc2c1-c1ccccc1F | – |

Continued, molecule first:

| Compound | Efficacy [1] | Efficacy [2] | Ki [3] [nM] | bioavailability [4] [%] | Ki [5] [nM] | Activity (Rattus norvegicus) [mg/kg] |
| --- | --- | --- | --- | --- | --- | --- |
| Cn1ncnc1COc1nn2c(-[n+]3ccncc3)nncc2c1-c1ccccc1F | 0.18 | 0.03 | 2.7 | – | – | – |
| Cn1ncnc1COc1nn2c(-c3ccccc3F)nncc2c1-c1ccncc1 | 0.19 | 0.1 | 0.14 | – | – | – |
| Cn1ncnc1COc1nn2c(-c3ccoc3)nncc2c1-c1ccccc1F | -0.12 | 0.07 | 0.61 | – | – | – |
| Cn1ncnc1COc1nn2c(-c3ccccc3F)nncc2c1-c1cccc(C(F)(F)F)c1 | 0.46 | 0.3 | 0.54 | – | – | – |
| Cn1ncnc1COc1nn2c(-c3ccccc3F)nncc2c1-c1ccccc1 | 0.44 | 0.18 | 0.77 | – | 0.39 | – |
| Cn1ncnc1COc1nn2c(-c3ccccc3F)nncc2c1-c1cccc(C#N)c1 | 0.28 | 0.35 | 1.6 | – | – | – |
| Cn1ncnc1COc1nn2c(-c3ccccc3Cl)nncc2c1-c1ccccc1F | 0.02 | -0.02 | 21 | – | – | – |
| Cn1ncnc1COc1nn2c(C3CC3)nncc2c1-c1ccccc1F | -0.01 | -0.08 | 0.36 | – | – | – |
| Cn1ncnc1COc1nn2c(-c3ccco3)nncc2c1-c1ccccc1F | 0.19 | 0.01 | 0.85 | – | – | – |
| Cn1ncnc1COc1nn2c(-c3ccccc3F)nncc2c1-c1ccccc1C(F)(F)F | – | – | > 33 | – | – | – |
| Cn1ncnc1COc1nn2c(-c3ccccc3F)nncc2c1-c1ccco1 | 0.16 | -0.09 | 0.11 | – | – | – |
| Cn1ncnc1COc1nn2c(-c3ccccc3F)nncc2c1-c1cccc(CO)c1 | 0.5 | 0.5 | 6.6 | – | – | – |
| Cn1ncnc1COc1nn2c(-c3ccccc3F)nncc2c1-c1cncnc1 | – | – | > 33 | – | – | – |
| Cn1ncnc1COc1nn2c(-c3cccs3)nncc2c1-c1ccccc1 | 0.19 | -0.03 | 1.6 | – | – | – |
| Cn1ncnc1COc1nn2c(-c3ccccc3F)nncc2c1-c1cccnc1 | 0.52 | 0.35 | 0.98 | – | – | – |
| Cn1ncnc1COc1nn2c(-c3ccccc3F)nncc2c1-c1ccccn1 | 0.56 | 0.45 | 1.4 | – | – | – |
| Cn1ncnc1COc1nn2c(-c3cccnc3)nncc2c1-c1ccccc1F | 0.16 | 0.15 | 1.1 | – | – | – |
| Cn1ncnc1COc1nn2c(-c3ccccc3F)nncc2c1-c1cccc(N)c1 | 0.38 | 0.42 | 14 | – | – | – |
